Assay results reported in ChEMBL document CHEMBL6092186, “Semisynthetic Ecdysteroid Cinnamate Esters and tert-Butyl Oxime Ether Derivatives with Trypanocidal Activity” (J Nat Prod, 2024).
Values belong to the molecule of their own block, whether it stands above or below them. Calls of active or inactive are those of the source. The rule behind the calls is not given here.

Experiments:
Trypanosoma cruzi [1] = assay: Anti-trypanosomal activity against Trypanosoma cruzi epimastigotes assessed as inhibition of parasitic proliferation at 5 uM incubated for 72 hrs by XTT assay relative to control; format: functional
Trypanosoma = assay: Anti-trypanosomal activity against Trypanosoma; format: functional, organism-based
Trypanosoma cruzi [2] = assay: Trypanocidal activity against Trypanosoma cruzi epimastigotes incubated for 24 hrs by Neubauer chamber method; format: functional, organism-based
CHO = assay: Cytotoxicity against CHO cells at 5 uM incubated for 72 hrs by MTT assay; format: toxicity, cell-based, Cricetulus griseus; conditions: chinese hamster

SMILES: CC(C)(O)CC[C@@H](OC(=O)/C=C/c1ccccc1)[C@](C)(O)[C@H]1CC=C2C3=C/C(=N\OC(C)(C)C)[C@@H]4C[C@@H](O)[C@@H](OC(=O)/C=C/c5ccccc5)C[C@]4(C)[C@H]3CC[C@@]21C
- inhibition at 5 µM (Trypanosoma cruzi [1]): ≥ 30%

- IC50 (Trypanosoma): > 600 µM
SMILES: COc1ccc(/C=C/C(=O)O)cc1 [4-METHOXYCINNAMIC ACID]

SMILES: CCCCCOC(=O)/C=C/c1ccc(O)cc1
- IC50 (Trypanosoma cruzi [2]): ~5 µM

SMILES: CC(C)(O)CC[C@@H](O)[C@](C)(O)[C@H]1CC=C2C3=C/C(=N/OC(C)(C)C)[C@@H]4C[C@@H](O)[C@@H](OC(=O)/C=C/c5ccccc5)C[C@]4(C)[C@H]3CC[C@@]21C
- inhibition at 5 µM (Trypanosoma cruzi [1]): ≥ 30%

SMILES: CC(C)(O)CC[C@H]1OC(C)(C)O[C@]1(C)[C@H]1CC=C2C3=C/C(=N/OC(C)(C)C)[C@@H]4C[C@H]5OC(C)(C)O[C@H]5C[C@]4(C)[C@H]3CC[C@@]21C
- Activity (CHO): Non-toxic

SMILES: CC(C)(O)CC[C@@H](OC(=O)/C=C/c1ccccc1)[C@](C)(O)[C@H]1CC[C@@]2(O)C3=CC(=O)[C@@H]4C[C@@H](OC(=O)/C=C/c5ccccc5)[C@@H](O)C[C@]4(C)[C@H]3CC[C@]12C
- Activity (CHO): Non-toxic

SMILES: CC(C)(O)CC[C@@H](O)[C@](C)(O)[C@H]1CC=C2C3=C/C(=N/OC(C)(C)C)[C@@H]4C[C@@H](O)[C@@H](O)C[C@]4(C)[C@H]3CC[C@@]21C
- inhibition (Trypanosoma cruzi [1]): inactive

SMILES: CC(C)(O)CC[C@@H](O)[C@](C)(O)[C@H]1CC=C2C3=C/C(=N\OC(C)(C)C)[C@@H]4C[C@@H](O)[C@@H](OC(=O)/C=C/c5ccccc5)C[C@]4(C)[C@H]3CC[C@@]21C
- inhibition at 5 µM (Trypanosoma cruzi [1]): ≥ 30%

SMILES: CC(C)(O)CC[C@@H](OC(=O)/C=C/c1ccccc1)[C@](C)(O)[C@H]1CC=C2C3=C/C(=N\OC(C)(C)C)[C@@H]4C[C@@H](OC(=O)/C=C/c5ccccc5)[C@@H](OC(=O)/C=C/c5ccccc5)C[C@]4(C)[C@H]3CC[C@@]21C
- inhibition at 5 µM (Trypanosoma cruzi [1]): ≥ 30%

SMILES: CC(C)(O)CC[C@@H](O)[C@](C)(O)[C@H]1CC=C2C3=C/C(=N\OC(C)(C)C)[C@@H]4C[C@@H](O)[C@@H](O)C[C@]4(C)[C@H]3CC[C@@]21C
- inhibition (Trypanosoma cruzi [1]): inactive

SMILES: CC(C)(O)CC[C@@H](OC(=O)/C=C/c1ccccc1)[C@](C)(O)[C@H]1CC[C@@]2(O)C3=CC(=O)[C@@H]4C[C@@H](O)[C@@H](OC(=O)/C=C/c5ccccc5)C[C@]4(C)[C@H]3CC[C@]12C
- Activity (CHO): Non-toxic

- IC50 (Trypanosoma): > 600 µM
SMILES: COc1ccc(/C=C/C(=O)O)c(OC)c1

- IC50 (Trypanosoma): > 600 µM
SMILES: COc1cc(/C=C/C(=O)O)cc(OC)c1OC [SINAPIC ACID METHYL ETHER]

SMILES: CC(C)(O)CC[C@H]1OC(C)(C)O[C@]1(C)[C@H]1CC[C@@]2(O)C3=C/C(=N\OC(C)(C)C)[C@@H]4C[C@H]5OC(C)(C)O[C@H]5C[C@]4(C)[C@H]3CC[C@]12C
- Activity (CHO): Non-toxic
